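Test compounds were applied to cells in 96-well plates for 48 hours at 5 doses. GI50: concentration for 50% inhibition of growth. TGI: concentration producing complete growth inhibition.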
What was measured:
Test in all cases: NCI tumour cell line growth inhibition, 48 h
OVCAR-8 ovarian = test system: OVCAR-8 ovarian
MDA-MB-435 = test system: MDA-MB-435
LOX IMVI melanoma = test system: LOX IMVI melanoma
NCI-H522 lung = test system: NCI-H522 lung
MOLT-4 leukemia = test system: MOLT-4 leukemia
RXF 393 renal = test system: RXF 393 renal
HS 578T breast = test system: HS 578T breast
OVCAR-5 ovarian = test system: OVCAR-5 ovarian
HCT-15 colon = test system: HCT-15 colon
MALME-3M melanoma = test system: MALME-3M melanoma
SF-295 CNS = test system: SF-295 CNS

Structure (SMILES) | TGI (OVCAR-8 ovarian) [µM] | TGI (MDA-MB-435) [µM] | TGI (LOX IMVI melanoma) [µM] | TGI (NCI-H522 lung) [µM] | TGI (MOLT-4 leukemia) [µM] | TGI (RXF 393 renal) [µM] | TGI (HS 578T breast) [µM] | TGI (OVCAR-5 ovarian) [µM] | TGI (HCT-15 colon) [µM] | TGI (MALME-3M melanoma) [µM] | TGI (SF-295 CNS) [µM] | GI50 (MDA-MB-435) [µM] | GI50 (MOLT-4 leukemia) [µM] | GI50 (RXF 393 renal) [µM] | GI50 (OVCAR-5 ovarian) [µM] | GI50 (HCT-15 colon) [µM] | GI50 (MALME-3M melanoma) [µM] | GI50 (SF-295 CNS) [µM] | GI50 (OVCAR-8 ovarian) [µM] | GI50 (LOX IMVI melanoma) [µM]
Cc1ncc(COP(=O)(O)O)c(C)c1O | > 100 | > 100 | > 100 | > 100 | > 100 | > 100 | > 100 | > 100 | > 100 | > 100 | > 100 |  |  |  |  |  |  |  |  | 
N=C(N)SCCN1CCCCC1 | > 100 | 52.7 | 48.4 | 24.3 | 58 | 32.6 | 58.2 | > 100 | > 100 | 32.1 | > 100 |  |  |  |  |  |  |  |  | 
O=C1O/C(=C\C=C\CO)C=C1/C=C/CO | 38.6 | > 100 | > 100 | 22.5 | > 100 | 38.3 |  | 41.7 | 30.8 | 32.5 | > 100 |  |  |  |  |  |  |  |  | 
NC(=S)N/N=C1\CC(c2ccccc2)Nc2ccccc21 (configuration not stated) | > 100 |  | > 100 | 99.2 | 73.2 |  |  |  | > 100 | 97 | > 100 |  |  |  |  |  |  |  |  | 
Cc1ccccc1C1CC(=O)CC(c2ccccc2C)C12C(=O)NC(=S)NC2=O (configuration not stated) |  | 62.4 | 35.8 |  | > 100 | 38.8 | 97.2 | > 100 | 56.6 | 78.4 | > 100 |  |  |  |  |  |  |  |  | 
CC(=O)C(N=NC1CCC(S(=O)(=O)NB2N=CS2)CC1)C(=O)Nc1ccccc1C (configuration not stated) | 34.1 |  |  | 29.6 | > 100 | 35.9 |  | 39.3 | 22.3 | 30.5 | 35.1 |  |  |  |  |  |  |  |  | 
CCCCCCCCc1ccc(CCC(N)(CO)CO)cc1 |  | 3.45 |  |  | 3.44 | 2.85 |  | 3.08 | 3.42 | 5.8 | 3.93 | 1.82 | 1.64 | 1.52 | 1.64 | 1.68 | 2.32 | 1.98 |  | 
CC1(Cc2cc3c(cc2C2(c4ccc([N+](=O)[O-])cc4)OCCO2)OCO3)OCCO1 | > 100 | > 100 | > 100 | 82.3 | > 100 | > 100 | > 100 | > 100 | > 100 | > 100 | > 100 |  |  |  |  |  |  |  |  | 
COc1cc(O)c2c(=O)c(OC)c(-c3ccc(OC)c(OC)c3)oc2c1.[Zn+2] | > 100 |  | > 100 | 24.1 | > 100 | 45.6 | 9.49 | > 100 |  | > 100 | 35.9 |  | > 100 |  | > 100 |  | 33.3 | 5.57 | 13.2 | 7.68
O=S(=O)([O-])[O-].[Fe+2].[OH2+]c1c(Cl)cc(Cl)cc1/C=N/Nc1ccccn1 | 2.94 |  | 2.79 | 1.92 | 2.94 | 1.9 |  | 5.97 | 3.48 | 3.57 | 3.45 |  |  |  |  |  |  |  |  | 
Cc1cccc(/C=C2/C(=O)Nc3ccccc32)n1 | > 80.3 | 60.9 | > 62.6 | 34.7 | 44.5 | 27.2 | > 80.1 | 27 | > 68.9 | 49.1 | 54.4 |  |  |  |  |  |  |  |  | 
C[N+]1(C)C/C(=C\c2ccc(O)cc2)C(=O)/C(=C/c2ccc(O)cc2)C1 | > 100 |  | > 100 | > 100 | > 100 | > 100 |  | > 100 | > 100 | > 100 | > 100 |  |  |  |  |  |  |  |  | 
CCOc1ccc(N=Nc2ccc(-c3ccc(N=Nc4c(O)ccc5cc(S(=O)(=O)O)cc(S(=O)(=O)O)c45)cc3)cc2)cc1 | > 100 | > 100 |  | > 100 | > 100 | > 100 | > 100 | > 100 | > 100 | > 100 | > 100 |  |  |  |  |  |  |  |  | 
CC(=O)Oc1cc(/C=C/c2ccc(O)cc2)cc(OC(C)=O)c1 | > 100 | > 100 |  | > 100 | 63.2 | > 100 | > 100 | > 100 | > 100 | > 100 | > 100 |  |  |  |  |  |  |  |  | 
COc1ccc(OC)c([N+](=O)[O-])c1-c1nc2sc(C)c(C)n2c1/C=N/N=C(N)N | > 100 | > 100 | > 100 | > 100 | 40.4 | > 100 | > 100 | > 100 | > 100 | > 100 | > 100 |  |  |  |  |  |  |  |  | 
O=C(/C=C/c1ccc(O)cc1)c1cc(-c2cc(CCC(=O)c3ccc(O)cc3O)ccc2O)c(O)cc1O | > 50 | > 50 | > 50 | > 50 | > 50 | > 50 | > 50 | > 50 | > 50 | > 50 | > 50 |  |  |  |  |  |  |  |  | 
CC(=O)c1c(C)cc2cccc(OC3OC(CO)C(O)C(O)C3O)c2c1O (configuration not stated) (tested in a mixture with another compound) | > 100 | > 100 | > 100 | > 100 | > 100 | > 100 | > 100 | > 100 | > 100 | > 100 | > 100 |  |  |  |  |  |  |  |  | 
CC(=O)[C@]12OC(=O)C3=C1[C@H](CC[C@@H]3C)[C@@H](C)C[C@H]2C=C(C)C | 17 | 16 | 15.2 | 11.4 | 18.6 |  | 18.1 | 15.2 | 15.5 |  | 12.8 |  |  |  |  |  |  |  |  | 

— PubChem BioAssay (NCI)
